Here are results for four molecules from ChEMBL document CHEMBL3091441, “Ligand modifications to reduce the relative resistance of multi-drug resistant HIV-1 protease” (Bioorg Med Chem, 2013).

The test system of test [1] is Human immunodeficiency virus 1. Description: Ratio of IC50 for HIV-1 multidrug-resistant protease 769 to IC50 for HIV-1 NL4-3 wild type protease.
Test [2] can be described thus: Inhibition of HIV-1 multidrug-resistant protease 769 preincubated for 20 mins by FRET analysis. Also noted: species or system Human immunodeficiency virus 1.
Another test deals with Protease (Human immunodeficiency virus 1, UniProt Q9YQ12). Description: Inhibition of HIV-1 NL4-3 wild type protease expressed in Escherichia coli preincubated for 20 mins by FRET analysis.
Protease, sequence (Q9YQ12 whole entry): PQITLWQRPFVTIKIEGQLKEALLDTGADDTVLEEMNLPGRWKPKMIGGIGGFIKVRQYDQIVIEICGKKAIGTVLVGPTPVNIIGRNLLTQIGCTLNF

Structures are written as SMILES. *1 amine or outer side, *2 acyl side, *3 side chain or, on linkers, in order; H or OH if unused. Where a SMILES comes first, the peptide text is derived from it. Side-chain parts run from the residue outwards. [ ]: non-standard residue; d: D form. N(2S-amino-4-Me-pentyl)Phe = CC(C)C[C@@H](CN([C@@H](Cc1ccccc1)C(=O)[*:2])[*:1])N[*:3]; N(2S-NH-3-Ph-propyl)Phe = O=C([C@H](Cc1ccccc1)N(C[C@H](Cc1ccccc1)N[*:3])[*:1])[*:2]; Nle = CCCC[C@H](N)C(=O)O

The IC50 is the concentration that inhibits the measured activity by half.

Consider `Cc1cccc(C)c1OCC(=O)N[C@@H](Cc1ccccc1)[C@@H](O)C[C@H](CC(C)C)NC(=O)[C@H](C(C)C)N1CCCNC1=O`, for which, in test [1], the Ratio IC50 came out at 3.2. In addition, the IC50 turned out to be 6.8 nM in test [2] and 2.1 nM against Protease.

`CCCC[C@H](NC(=O)CNC(=O)[C@H](CCC(=O)O)NC(=O)[C@H](Cc1ccccc1)NC[C@H](Cc1ccccc1)NC(=O)[C@@H](NC(=O)[C@@H](N)CCCNC(=N)N)C(C)C)C(=O)O` (H-[N(2S-NH-3-Ph-propyl)Phe]([Val-Arg])EG[Nle]-OH): in test [1], the Ratio IC50 was 4.6. Moreover, the IC50 is 142 nM in test [2] and 30.7 nM at Protease.

In the case of `CCCC[C@H](NC(=O)CNC(=O)[C@H](CCC(=O)O)NC(=O)[C@H](Cc1ccccc1)NC[C@H](CC(C)C)NC(=O)[C@@H](NC(=O)[C@@H](N)CCCNC(=N)N)C(C)C)C(=O)O` (H-[N(2S-amino-4-Me-pentyl)Phe]([Val-Arg])EG[Nle]-OH), the Ratio IC50 in test [1] stood at 1.7. In addition, the IC50 was found to be 4.4 nM in test [2] and 2.6 nM on Protease.

As for `Cc1cccc(C)c1OCC(=O)N[C@@H](Cc1ccccc1)[C@@H](O)C[C@H](Cc1ccccc1)NC(=O)[C@H](C(C)C)N1CCCNC1=O` [LOPINAVIR], 16 nM corresponded to half-maximal inhibition in test [2] (IC50).
